Assay results from article PMC4753485, “Selective potentiation of 2-APB-induced activation of TRPV1–3 channels by acid” (Scientific Reports, 2016).
Where “and” joins values, the source holds several entries; their conditions need not be identical. Equal entries are not always repeated. Where two headings read alike, the source gives them in different places.

How the values were obtained:
[1] = biological target: T1, mouse TRPV3 (Mus musculus, UniProt Q8K424); test: Whole-cell recordings of TRPV3 currents in HEK293 cells; assay type: cell-based; details: for EC50: EC50 of 2-APB-evoked TRPV3 whole-cell current, Vh −60 mV; for EC50 / Hill coefficient nH of 2-APB concentration-response: after full sensitization
T1 construct: Full-length cDNA for murine TRPV3 was isolated and subcloned into pIRES2-EGFP; expressed in transfected cells; host or cells: HEK293 (transient)
T1 sequence (Q8K424 1-791): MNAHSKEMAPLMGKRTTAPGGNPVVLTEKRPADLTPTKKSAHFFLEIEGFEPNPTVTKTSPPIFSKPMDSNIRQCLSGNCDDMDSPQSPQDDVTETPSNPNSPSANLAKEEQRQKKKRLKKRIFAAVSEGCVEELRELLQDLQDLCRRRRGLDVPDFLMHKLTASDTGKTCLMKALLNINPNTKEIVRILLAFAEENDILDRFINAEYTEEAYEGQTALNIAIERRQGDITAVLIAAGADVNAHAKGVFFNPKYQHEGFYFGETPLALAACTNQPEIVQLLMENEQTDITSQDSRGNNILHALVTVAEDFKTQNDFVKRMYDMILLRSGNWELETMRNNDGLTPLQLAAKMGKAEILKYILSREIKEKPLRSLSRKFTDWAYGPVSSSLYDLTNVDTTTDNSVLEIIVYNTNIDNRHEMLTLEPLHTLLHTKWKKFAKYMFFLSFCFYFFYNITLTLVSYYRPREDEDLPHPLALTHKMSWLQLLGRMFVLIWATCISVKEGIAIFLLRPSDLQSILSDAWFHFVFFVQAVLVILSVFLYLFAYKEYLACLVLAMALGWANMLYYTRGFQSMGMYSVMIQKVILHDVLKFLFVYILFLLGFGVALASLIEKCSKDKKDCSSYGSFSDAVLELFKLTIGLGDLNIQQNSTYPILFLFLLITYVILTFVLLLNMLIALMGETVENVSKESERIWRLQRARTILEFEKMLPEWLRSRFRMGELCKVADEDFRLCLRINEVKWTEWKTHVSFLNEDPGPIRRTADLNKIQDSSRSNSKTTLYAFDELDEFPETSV
Procedure: The resulting mutations were verified by DNA sequencing.
Whole-cell recordings were performed the following day. […] Camphor was purchased from Acros (New Jersey, USA).

[2] = 1H-NMR and mass spectrometry of compounds in solution; details: 1H-NMR in PBS and mass spectrometry
Procedure: The solution NMR samples were prepared at the final concentration of 1 mM for the test compound in PBS at three different pH values (5.5, 7.4 and 8.5). […] One-dimensional (1D) ^1H NMR spectra were collected with 2-s delays using a standard Varian 1D watergate pulse sequence. Two-dimensional (2D) ^1H NMR TOCSY (mixing time 100 ms) and NOESY (mixing time 500 ms) spectra were collected using standard Varian TOCSY and NOESY pulse sequences. All spectra were processed using NMRPipe[45] with 1D ^1H spectra analyzed using ACD/NMR Processor (www.acdlabs.com) while 2D ^1H spectra analyzed using SPARKY[46]. In TOCSY, cross-peaks were potentially generated between all resonances within a spin system, while in NOESY, the integrated intensity of a given cross-peak was interpreted in terms of the distance between the two hydrogen atoms that gave rise to the peak.
The molecular mass was then measured by using positive and negative ion electrospray ionization mass spectrometry (ESI-MS, Thermo Fisher Scientific Inc., Waltham, MA).

[3] = biological target: T2, TRPV1(E600Q/T633A) (Rattus norvegicus, UniProt O35433, E600Q/T633A); test: Whole-cell recordings of TRPV1(E600Q/T633A) in HEK293 cells; assay type: cell-based; details: −60 mV
T2 construct: expressed in transfected cells; host or cells: HEK293
T2 sequence (O35433 whole entry E600Q/T633A): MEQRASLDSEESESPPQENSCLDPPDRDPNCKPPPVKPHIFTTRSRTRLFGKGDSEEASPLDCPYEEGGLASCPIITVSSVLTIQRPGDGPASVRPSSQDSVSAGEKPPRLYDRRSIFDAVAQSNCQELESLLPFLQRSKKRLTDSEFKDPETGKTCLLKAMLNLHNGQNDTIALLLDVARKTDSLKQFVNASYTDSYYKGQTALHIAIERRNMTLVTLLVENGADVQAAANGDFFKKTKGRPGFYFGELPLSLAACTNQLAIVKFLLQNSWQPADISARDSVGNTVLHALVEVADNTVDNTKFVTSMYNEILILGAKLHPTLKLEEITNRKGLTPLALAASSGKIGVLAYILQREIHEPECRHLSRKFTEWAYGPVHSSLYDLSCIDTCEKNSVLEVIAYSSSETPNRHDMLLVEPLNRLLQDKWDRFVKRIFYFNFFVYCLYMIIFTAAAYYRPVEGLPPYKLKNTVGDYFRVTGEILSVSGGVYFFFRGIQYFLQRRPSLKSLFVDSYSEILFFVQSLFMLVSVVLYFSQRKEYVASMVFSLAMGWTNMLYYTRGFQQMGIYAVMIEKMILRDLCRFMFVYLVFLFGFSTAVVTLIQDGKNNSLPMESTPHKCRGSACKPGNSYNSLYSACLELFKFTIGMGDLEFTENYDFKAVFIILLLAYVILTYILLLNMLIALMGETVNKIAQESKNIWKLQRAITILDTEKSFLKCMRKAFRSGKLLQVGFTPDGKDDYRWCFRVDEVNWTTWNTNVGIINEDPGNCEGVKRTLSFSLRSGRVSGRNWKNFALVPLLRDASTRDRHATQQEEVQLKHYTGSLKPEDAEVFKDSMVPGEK
Source text: (§1) Full-length cDNA for murine TRPV3 was isolated and subcloned into pIRES2-EGFP, as previously described. The wild-type rat TRPV1, TRPV2 and TRPM8 cDNAs were generously provided by Dr. Feng Qin (State University of New York at Buffalo, Buffalo). All mutations were made using either QuikChange® XL site-directed mutagenesis kit (Agilent Technologies) or the overlap-extension polymerase chain reaction (PCR) method as previously described. The resulting mutations were verified by DNA sequencing. HEK293 cells were grown in DMEM containing 4.5 mg/ml glucose, 10% heat-inactivated fetal bovine serum, 50 units/ml penicillin, and 50 μg/ml streptomycin. For electrophysiological experiments, cells were seeded in 35 mm culture dishes and transfected with the desired DNA constructs using Lipofectamine 2000 (Invitrogen) following the protocol provided by the manufacturer. Stable TRPV3 expressing cells were selected in the G418-containing medium. […]
(§2) Transfected HEK293 cells were reseeded on 12 mm round glass coverslips (Warner Instruments) one day after transfection. […] Voltage commands were made from the Patchmaster program, and the currents were recorded at 5 kHz. […] As determined by the conductance tests, the solution around a patch under study was fully controlled by the application of a solution with a flow rate of 100 μl/min or greater. […]

[4] = biological target: T3, TRPV1 (Rattus norvegicus, UniProt O35433); test: Inside-out patch recordings from TRPV1-expressing HEK293 cells; assay type: cell-based; details: +60 mV
T3 construct: expressed in transfected cells; host or cells: HEK293
T3 sequence (O35433 whole entry): as the sequence (O35433 whole entry E600Q/T633A) above, with Q600E, A633T counted along it
Source text: as §1, §2

[5] = no reference given; cited from earlier work
[6] = biological target: TRPV2 (Rattus norvegicus, UniProt Q9WUD2); test: cell-based; details: for EC50: EC50 of 2-APB-evoked TRPV2 whole-cell current
Sequence of TRPV2 (Q9WUD2 whole entry): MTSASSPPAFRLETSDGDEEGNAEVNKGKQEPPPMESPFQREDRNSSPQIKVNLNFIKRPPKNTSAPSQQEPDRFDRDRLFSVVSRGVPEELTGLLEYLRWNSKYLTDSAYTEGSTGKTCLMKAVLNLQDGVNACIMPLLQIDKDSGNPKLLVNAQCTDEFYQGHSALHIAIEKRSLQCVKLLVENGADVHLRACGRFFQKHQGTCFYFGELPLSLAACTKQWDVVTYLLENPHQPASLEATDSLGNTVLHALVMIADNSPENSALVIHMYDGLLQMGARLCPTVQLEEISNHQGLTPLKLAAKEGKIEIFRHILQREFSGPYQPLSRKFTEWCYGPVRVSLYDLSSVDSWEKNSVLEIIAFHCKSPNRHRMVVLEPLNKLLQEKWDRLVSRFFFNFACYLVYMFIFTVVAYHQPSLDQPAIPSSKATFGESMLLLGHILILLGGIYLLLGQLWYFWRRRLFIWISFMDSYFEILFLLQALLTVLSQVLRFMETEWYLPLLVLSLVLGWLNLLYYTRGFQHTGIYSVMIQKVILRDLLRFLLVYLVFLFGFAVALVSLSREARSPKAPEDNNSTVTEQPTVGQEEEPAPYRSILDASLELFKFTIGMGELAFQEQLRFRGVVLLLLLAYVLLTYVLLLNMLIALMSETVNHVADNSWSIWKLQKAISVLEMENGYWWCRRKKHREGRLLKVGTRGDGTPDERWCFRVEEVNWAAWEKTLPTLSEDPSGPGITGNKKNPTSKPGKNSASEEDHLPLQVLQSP
Source text: (§3) Full-length cDNA for murine TRPV3 was isolated and subcloned into pIRES2-EGFP, as previously described. The wild-type rat TRPV1, TRPV2 and TRPM8 cDNAs were generously provided by Dr. Feng Qin (State University of New York at Buffalo, Buffalo). All mutations were made using either QuikChange® XL site-directed mutagenesis kit (Agilent Technologies) or the overlap-extension polymerase chain reaction (PCR) method as previously described. The resulting mutations were verified by DNA sequencing. HEK293 cells were grown in DMEM containing 4.5 mg/ml glucose, 10% heat-inactivated fetal bovine serum, 50 units/ml penicillin, and 50 μg/ml streptomycin. For electrophysiological experiments, cells were seeded in 35 mm culture dishes and transfected with the desired DNA constructs using Lipofectamine 2000 (Invitrogen) following the protocol provided by the manufacturer. Stable TRPV3 expressing cells were selected in the G418-containing medium. For intracellular Ca^2+ measurements, cells were transfected with the desired DNA constructs in the wells of 96-well plates without pre-seeding using Lipofectamine 2000 (Invitrogen) as described.
(§4) Transfected HEK293 cells were reseeded on 12 mm round glass coverslips (Warner Instruments) one day after transfection. Whole-cell recordings were performed the following day. Recording pipettes were pulled from borosilicate glass capillaries (Sutter or World Precision Instruments) to 2–4 MΩ when filled with internal solution containing (in mM) 140 CsCl, 2.0 MgCl2, 5 EGTA, 10 HEPES, pH 7.4. Bathing solution contained (in mM) 140 NaCl, 5 KCl, 5 EGTA, 1 MgCl2, 10 glucose and 10 HEPES, pH 7.4. Isolated cells were voltage clamped in the whole-cell mode using an EPC10 amplifier (HEKA Instruments Inc). Voltage commands were made from the Patchmaster program, and the currents were recorded at 5 kHz. […] Whole-cell recordings were typically sampled at 5 kHz and filtered at 1 kHz. The compensation of pipette series resistance and capacitance were taken by using the built-in circuitry of the amplifier (>80%) to reduce voltage errors. Exchange of external solutions was performed using a gravity-driven local perfusion system (Automate Scientific). Channel activators were diluted into the recording solution at the desired final concentrations and applied to the cell through perfusion. As determined by the conductance tests, the solution around a patch under study was fully controlled by the application of a solution with a flow rate of 100 μl/min or greater. […] The acidic solutions contained (in mM): 140 NaCl, 5 KCl, 5 EGTA, 1 MgCl2, 10 glucose, and 10 MES, with pH adjusted to desired values by NaOH. For inside-out recordings, both the pipette solution and bath solution contained (in mM) 140 NaCl, 5 KCl, 5 EGTA, 1 MgCl2, 10 HEPES, pH 7.4. Excised patches were held constantly at desired potentials while compounds were repetitively applied and washed from the bath. For recordings from HEK293 cells under acidic pH conditions, the solution also contained 50 μM amiloride as an inhibitor of the native ASIC channels. Camphor was purchased from Acros (New Jersey, USA). Diphenyl borate (DPB) was synthesized by Beijing Realchem Technology Company (Beijing, China). Other chemicals were purchased from Sigma (Sigma, St. Louis, MO). Water-insoluble reagents were dissolved in either 100% ethanol or DMSO to make stock solutions and were diluted in the bathing solution at appropriate concentrations before experiments. […] All experiments except those for heat activation were performed at room temperature (22–24 °C).

[7] = biological target: TRPM8 (Rattus norvegicus, UniProt Q8R455); test: cell-based; details: for IC50: IC50 for inhibition of menthol-evoked TRPM8 current, 100 μM menthol
Sequence of TRPM8 (Q8R455 whole entry): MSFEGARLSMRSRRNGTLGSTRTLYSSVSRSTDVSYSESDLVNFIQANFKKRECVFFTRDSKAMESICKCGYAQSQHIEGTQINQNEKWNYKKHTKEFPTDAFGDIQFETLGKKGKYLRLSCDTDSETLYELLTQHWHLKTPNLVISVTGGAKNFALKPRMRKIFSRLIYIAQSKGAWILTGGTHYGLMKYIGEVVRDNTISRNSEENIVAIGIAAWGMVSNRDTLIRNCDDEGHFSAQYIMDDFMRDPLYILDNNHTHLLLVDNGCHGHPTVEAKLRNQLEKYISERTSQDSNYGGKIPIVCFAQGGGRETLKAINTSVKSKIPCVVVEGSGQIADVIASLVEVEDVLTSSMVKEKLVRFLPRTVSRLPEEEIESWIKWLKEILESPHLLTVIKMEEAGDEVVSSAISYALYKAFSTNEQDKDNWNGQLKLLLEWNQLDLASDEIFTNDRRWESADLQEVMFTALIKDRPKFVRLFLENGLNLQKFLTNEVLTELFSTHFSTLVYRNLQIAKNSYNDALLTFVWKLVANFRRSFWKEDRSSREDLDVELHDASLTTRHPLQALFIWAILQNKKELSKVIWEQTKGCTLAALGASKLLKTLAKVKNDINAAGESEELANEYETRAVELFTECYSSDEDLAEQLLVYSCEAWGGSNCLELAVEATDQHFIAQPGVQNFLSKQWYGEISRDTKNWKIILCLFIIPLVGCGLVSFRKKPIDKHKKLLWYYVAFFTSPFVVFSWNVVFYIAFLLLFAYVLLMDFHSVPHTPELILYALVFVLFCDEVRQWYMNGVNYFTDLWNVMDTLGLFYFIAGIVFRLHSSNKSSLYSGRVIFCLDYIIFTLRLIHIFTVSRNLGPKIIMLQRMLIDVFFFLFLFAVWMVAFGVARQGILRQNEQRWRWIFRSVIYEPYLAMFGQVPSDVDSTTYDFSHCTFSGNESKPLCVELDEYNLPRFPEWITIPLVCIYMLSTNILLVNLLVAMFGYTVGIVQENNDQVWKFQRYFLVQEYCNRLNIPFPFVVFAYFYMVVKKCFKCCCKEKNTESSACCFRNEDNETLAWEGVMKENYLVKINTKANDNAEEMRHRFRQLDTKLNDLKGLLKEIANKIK
Source text: as §3, §4

[8] = biological target: T4, TRPV3 (Mus musculus, UniProt Q8K424); details: 32 °C
Source text: as §3

[9] = biological target: T4, TRPV3; test: cell-based
Source text: as §3

[10] = tested on: TRPV3 linker 2–3 mutants (L508R, D512N, S518V, A520S); details: 100 μM 2-APB; whole-cell and inside-out; after sensitization with 500 μM 2-APB
Source text: as §1, §2

SMILES: OC(c1ccccc1)c1ccccc1 [DPM, diphenyl methanol]
- TRPV3 current elicited ([1]; pH 7.4 (30 or 500 μM) or pH 5.5 (30 μM only), after sensitization with 100 μM 2-APB): no detectable current

SMILES: c1ccc(B(OB(c2ccccc2)c2ccccc2)c2ccccc2)cc1 [DPBA, diphenylboronic anhydride]
- Stability in solution [2]: easily hydrolyzed to DPB
- Increase of evoked current by acid (pH 5.5) ([1]; 5 μM DPBA, after sensitization with 30 μM DPBA): ~ 7 fold

SMILES: COc1cc(CNC(=O)CCCC/C=C/C(C)C)ccc1O [capsaicin]
- Decrease of elicited current by lowering extracellular pH to 5.5 ([3]; 0.01 μM capsaicin): nearly one-half
- Effect of intracellular acid (pH 5.5) on evoked current ([4]; 0.1 μM capsaicin): did not enhance

SMILES: CC12CCC(CC1=O)C2(C)C (stereo not drawn) [camphor]
- Effect of acid (pH 5.5) on evoked TRPV3 current ([1]; 3 mM camphor, after sensitization with 100 μM 2-APB): slowed down the current development

SMILES: CC1CCC(C(C)C)C(O)C1 (stereo not drawn) [menthol]
- inhibition at 1000 µM ([1]; HEK293, pH 5.5, read-out: Inhibition of evoked TRPV3 current by acid (pH 5.5)): ~48%

SMILES: NCCOB(c1ccccc1)c1ccccc1 [2-APB, 2-aminoethoxydiphenyl borate]
- pKa of the amino group [5]: 9.6
- Effect of lowering extracellular pH to 5.5 on response ([3]; 10 μM 2-APB): strongly enhanced
- EC50 ([6]; pH 5.5): 112 ± 1.2 µM
- EC50 ([6]; pH 7.4): 522 ± 10.2 µM
- Hill coefficient nH of 2-APB concentration-response ([6]; pH 5.5): 5.2 ± 0.3 and 5.26 ± 0.35
- Hill coefficient nH of 2-APB concentration-response ([6]; pH 7.4): 4.3 ± 0.3 and 4.34 ± 0.35
- inhibition at 10 µM ([7]; HEK293, pH 5.5, read-out: Inhibition of menthol-evoked TRPM8 current): 84 ± 2%
- inhibition at 10 µM ([7]; HEK293, pH 6, read-out: Inhibition of menthol-evoked TRPM8 current): 69 ± 3%
- inhibition at 10 µM ([7]; HEK293, pH 7.4, read-out: Inhibition of menthol-evoked TRPM8 current): 24 ± 2%
- IC50 ([7]; pH 5.5): 3.1 µM and 3.07 µM
- IC50 ([7]; pH 7.4): 20.5 µM
- Hill coefficient nH of inhibition curve ([7]; pH 5.5): 1.5 ± 0.1 and 1.49 ± 0.08
- Hill coefficient nH of inhibition curve ([7]; pH 7.4): 1.4 ± 0.3 and 1.41 ± 0.28
- Effect of reducing extracellular pH to 5.5 on Ca2+ response ([8]; 166 μM 2-APB): not further increased
- Effect of reducing extracellular pH to 5.5 on Fluo-4 fluorescence intensity ([8]; low to moderate 2-APB concentrations (6–55 μM)): markedly enhanced
- Stability in solution [2]: easily hydrolyzed to DPB
- Half-maximal pH of 2-APB-activated TRPV3 currents ([1]; 10 μM 2-APB, pH 8.5 to 4.5, after sensitization with 100 μM 2-APB): 6.70 ± 0.02
- EC50 ([1]; pH 5.5): 3.3 µM and 3.34 µM
- EC50 ([1]; pH 7.4): 36.2 ± 2.1 µM
- Hill coefficient nH of 2-APB concentration-response ([1]; pH 5.5): 2.0 ± 0.3 and 1.98 ± 0.34
- Hill coefficient nH of 2-APB concentration-response ([1]; pH 7.4): 1.8 ± 0.2 and 1.76 ± 0.17
- EC50 [9]: 8.8 ± 1.5 µM
- Drop of cytosolic pH ([9]; 300 μM 2-APB): ~ 0.35 pH unit
- Effect of low pH (5.5) on response to 2-APB in mutant channels [10]: greatly increased
- Increase of peak current at pH 5.5 over pH 7.4, cytoplasmic side ([4]; 100 μM 2-APB): more than 2 fold

SMILES: OB(c1ccccc1)c1ccccc1 [DPB]
- Increase of evoked current by acidic pH (5.5 versus 7.4) ([1]; 10 μM DPB, after sensitization with 100 μM 2-APB): about 5 fold
